Test results published in US20240252668A1, “ANTIBODY DRUG CONJUGATES AND METHODS FOR MAKING THEREOF” (Novartis AG, priority 2021, published 2024).
Where two headings read alike, the source gives them in different places. Starred links: 1 amine or outer side, 2 acyl side, 3 side chain; linkers in the order of their positions; H or OH if unused. Positions of bridges follow the written chain, without caps; N, C: chain ends. Non-standard residues stand in square brackets, D forms with d. Residues, ends and D or L forms follow the SMILES beside them. ξ: configuration not given here. *: point of attachment. Leu(3R-O(AcLeu(3R-OH))) = CC(=O)N[C@H](C(=O)O[C@H](C(C)C)[C@H](N)C(=O)O)[C@H](O)C(C)C; Leu(3R-OH,Nα-propionyl) = CCC(=O)N[C@H](C(=O)*)[C@H](O)C(C)C; X1 = CC(C)[C@@H](O[*:3])[C@H](N[*:1])C(=O)[*:2]; X5 = CSC[C@@H](O[*:3])[C@H](N[*:1])C(=O)[*:2]; X4 = CCC(=O)N[C@H](C(=O)*)[C@H](O)CSC; ξLeu(3ξ-OH) = CC(C)C(O)C(N)C(=O)O; NMeT = CN[CH](C(=O)O)[CH](C)O; dPhLac = O=C(O)[C@H](O)Cc1ccccc1; PhLac = O=C(O)[CH](O)Cc1ccccc1; NMeA = CN[CH](C)C(=O)O; dNMeA = CN[C@H](C)C(=O)O; NMeDha = C=C(NC)C(=O)O

Key:
[1] = test system: 92.1 uveal melanoma cell line (heterozygous GNAQ Q209L); assay: Cell proliferation assay (resazurin cell viability), 92.1 cell line; assay type: cell-based
From the text: (§1) Cell Proliferation Assays with Chromodepsins (compounds (A1) and 2-15): Cell line descriptions: 92.1—uveal melanoma cell line, derived from primary tumor, harboring heterozygous GNAQ Q209L mutation. Purchased from Sigma Aldrich. MP41 (CRL-3297) -uveal melanoma cell line, derived from primary tumor, harboring heterozygous GNA11 Q209L mutation. Purchased from ATCC. A375—skin melanoma cell line, harboring homozygous BRAF V600E mutation. Origin: Cancer Cell Line Encyclopedia (CCLE). SK-MEL-30—skin melanoma cell line, harboring heterozygous NRAS Q61K mutation. Origin: CCLE.
(§2) Cells were cultured in 96-well plates in a total volume of 100 μL at 37° C., 5% CO2 and 95% relative humidity. All cell lines were cultured in RPMI Medium (RPMI 1640 w/o L-glutamine, Bioconcept ref. 1-41F01-I) except A375, DMEM medium (DMEM high glucose (4.5 g/L), Bioconcept, ref. 1-26F01-I), and supplemented with 10% FCS (Bioconcept, ref. 2-01F30-I). Two to three thousand cells were seeded in 96-well plates per well the night before they were treated with compounds (concentration range: from 260 nM to 0.036 nM with ⅓ dilution steps; for 7 the concentration range was increased from 10000 nM to 1.52 nM with ⅓ dilution steps). Cell viability was measured by addition of 10 ul of resazurin per well after 96 hours of treatment. Results were analyzed and plotted using GraphPad Prism 9.0.1.

[2] = test system: MP41 uveal melanoma cell line (heterozygous GNA11 Q209L); assay: Cell proliferation assay (resazurin cell viability), MP41 cell line; assay type: cell-based
From the text: as §1, §2

[3] = test system: A375 skin melanoma cell line (homozygous BRAF V600E); assay: Cell proliferation assay (resazurin cell viability), A375 cell line; assay type: cell-based
From the text: as §1, §2

[4] = test system: SK-MEL-30 skin melanoma cell line (heterozygous NRAS Q61K); assay: Cell proliferation assay (resazurin cell viability), SK-MEL-30 cell line; assay type: cell-based
From the text: as §1, §2

[5] = test system: 92.1 and MP41 cell lines (GNAQ/GNA11 mutant uveal melanoma); assay: Cell proliferation assays, potency ranking over both uveal melanoma lines; assay type: cell-based; details: for loss of potency compared to compound (A1) (growth inhibition): 92.1 and MP41 cell lines
From the text: The selective antiproliferative profile of the chromodepsins against GNAQ/GNA11 mutant cell lines is confirmed by the lack of activity against the A375 and SK MEL 30 cell lines that are independent from GNAQ/GNA11 signaling. The potency ranking using the 92.1 and MP41 cell lines is in good agreement with the previously SAR studies. […] These findings are in line with a recent report from Voss et al., highlighting the importance of the “lipophilic anchors” of compound (A1) at the residues varied in compounds 2 and 3, in context of binding kinetics and prolonged residence time on the target proteins. The retained potency of compound 4 indicates a promising exit vector for potential synthetic or biosynthetic modifications of the scaffold. […] The linearized depsipeptides compounds 5-7 lack any antiproliferative activity. In this experimental setup, the cellular permeability of the compounds was a crucial factor contributing to the observed antiproliferative potency. Therefore, all compounds were characterized in a low efflux MCDK assay and determined their exposed polar surface areas (EPSA) in order to assess their passive cellular permeabilities. All macrocyclic chromodepsins that feature the N acyl Hle side chain show similar results concerning their % fraction absorbed (% FA; average ˜60% FA+20%) and EPSA values.
as §1, §2

MDCK-LE monolayers = assay: Cell-based transwell assay with MDCK-low efflux monolayers (passive permeability); assay type: in vitro ADME; details: for % Fraction absorbed / % Recovery / Papp A − B: MDCK-LE monolayers
Method: Cell-based transwell assays with MDCK-low efflux monolayers: Compounds (A1) and 2-15 were tested in MDCK cell sub-clones with low effluxt ransporter activity (MDCK-LE) in order to determine their passive permeability. The incubations were performed at a contract research organization as described previously.

[6] = EPSA determination by supercritical fluid chromatography; assay type: physicochemical; details: for EPSA: modified EPSA method, SFC
Method: […] by supercritical fluid chromatography: Compounds (A1) and 2-15 were tested by supercritical fluid chromatography (SFC) to determine their ESAPSA values. Samples were analyzed using a Chirex 3014 column ([…], 3×100 mm column, 100 Å pore size; Phenomenex. The starting conditions were 5% methanol containing 20 mM ammonium formate and 95% scCO2. The gradient was increased linearly to 60% methanol containing 20 mM ammonium formate in 4.5 min.

[7] = 92.1 (GNAQ Q209L), 96 hours of treatment, read-out: GI50 by cell line, 92.1
[8] = 92.1 cell line, average of Rep. 1 and 2, read-out: GI50 92.1 Average
[9] = 92.1 cell line, replicate 1, read-out: GI50 92.1 Rep. 1
[10] = 92.1 cell line, replicate 2, read-out: GI50 92.1 Rep. 2
[11] = MP41 (GNA11 Q209L), 96 hours of treatment, read-out: GI50 by cell line, MP41
[12] = MP41 cell line, average of Rep. 1 and 2, read-out: GI50 MP41 Average
[13] = MP41 cell line, replicate 1, read-out: GI50 MP41 Rep. 1
[14] = MP41 cell line, replicate 2, read-out: GI50 MP41 Rep. 2
[15] = A375 (GNAQ/11 wild type), 96 hours of treatment, read-out: GI50 by cell line, A375
[16] = A375 cell line, average of Rep. 1 and 2, read-out: GI50 A375 Average
[17] = A375 cell line, replicate 1, read-out: GI50 A375 Rep. 1
[18] = A375 cell line, replicate 2, read-out: GI50 A375 Rep. 2
[19] = SK-MEL-30 (GNAQ/11 wild type), 96 hours of treatment, read-out: GI50 by cell line, SK-MEL-30
[20] = SK-MEL-30 cell line, average of Rep. 1 and 2, read-out: GI50 SK-MEL-30 Average
[21] = SK-MEL-30 cell line, replicate 1, read-out: GI50 SK-MEL-30 Rep. 1
[22] = SK-MEL-30 cell line, replicate 2, read-out: GI50 SK-MEL-30 Rep. 2
[23] = versus macrocyclic chromodepsins with N-acyl-Hle side chain

| Compound | GI50 [1, 7] [nM] | GI50 [1, 8] [nM] | GI50 [1, 9] [nM] | GI50 [1, 10] [nM] | GI50 [2, 11] [nM] | GI50 [2, 12] [nM] | GI50 [2, 13] [nM] | GI50 [2, 14] [nM] | GI50 [3, 15] [nM] | GI50 [3, 16] [nM] | GI50 [3, 17] [nM] | GI50 [3, 18] [nM] | GI50 [4, 19] [nM] | GI50 [4, 20] [nM] | GI50 [4, 21] [nM] | GI50 [4, 22] [nM] | % Fraction absorbed (MDCK-LE monolayers) [%] | % Recovery (MDCK-LE monolayers) [%] | Papp A − B (MDCK-LE monolayers) [×10⁻⁶ cm/s] | EPSA [6] [A^2] | also measured |
| --- | --- | --- | --- | --- | --- | --- | --- | --- | --- | --- | --- | --- | --- | --- | --- | --- | --- | --- | --- | --- | --- |
| C=C1C(=O)NC(C)C(=O)N(C)C(C)C(=O)NC(C(O)C(C)C)C(=O)N(C)C(C(C)OC)C(=O)OC(C)C(NC(C)=O)C(=O)OC(Cc2ccccc2)C(=O)N1C (stereo not drawn) [Compound 15] (Ac-T[PhLac][NMeDha]A[NMeA][ξLeu(3ξ-OH)][NMeT](Me); ester 1-C; configuration not given here) | > 10000 | > 10000 | > 10000 | > 10000 | > 10000 | > 10000 | > 10000 | > 10000 | > 10000 | > 10000 | > 10000 | > 10000 | > 10000 | > 10000 | > 10000 | > 10000 | 15 | 90 | 0.79 | 109 | antiproliferative activity (in words) [5]: some antiproliferative activity observed at the highest doses tested; GI50 ([5]; cell line not specified): > 10000 nM; reduction in % FA (MDCK-LE monolayers; [23]): ~5 fold; change in EPSA (in words) [6, 23]: slight changes |
| CCC(=O)N[C@H](C(=O)O[C@H](C(C)C)[C@@H]1NC(=O)[C@H](C)N(C)C(=O)[C@H](C)NC(=O)[C@@H](C)N(C)C(=O)[C@@H](Cc2ccccc2)OC(=O)[C@@H](NC(C)=O)[C@@H](C(C)C)OC(=O)[C@H]([C@@H](C)OC)N(C)C1=O)[C@H](O)C(C)C [Compound 11] (Ac-[X1][dPhLac][dNMeA]A[NMeA][X1](Leu(3R-OH,Nα-propionyl))[NMeT](Me); ester 1-C) | 1.8 | 1.8 | 1.4 | 2.24 | 0.7 | 0.7 | 0.54 | 0.78 | > 260 | > 260 | > 260 | > 260 | > 260 | > 260 | > 260 | > 260 | 79.5 | 76 | 8.5 | 95 | loss of potency compared to compound (A1) (growth inhibition) [5]: two to three |
| C=C1C(=O)N[C@@H](C)C(=O)N(C)[C@@H](C)C(=O)N[C@@H]([C@H](OC(=O)[C@@H](NC(C)=O)[C@H](O)C(C)C)C(C)C)C(=O)N(C)[C@@H]([C@@H](C)OC)C(=O)O[C@H](C(C)C)[C@H](NC(C)=O)C(=O)O[C@H](Cc2ccccc2)C(=O)N1C [Compound 8] (Ac-[X1][dPhLac][NMeDha]A[NMeA][Leu(3R-O(AcLeu(3R-OH)))][NMeT](Me); ester 1-C) | 1 | 1 | 0.82 | 1.24 | 0.4 | 0.4 | 0.33 | 0.46 | > 260 | > 260 | > 260 | > 260 | > 260 | > 260 | > 260 | > 260 | 70.4 | 78 | 5.84 | 94 | loss of potency compared to compound (A1) (growth inhibition) [5]: two to three |
| C=C1C(=O)N[C@@H](C)C(=O)N(C)[C@@H](C)C(=O)N[C@@H]([C@H](OC(=O)[C@@H](NC(=O)CC)[C@H](O)C(C)C)C(C)C)C(=O)N(C)[C@@H]([C@@H](C)OC)C(=O)O[C@H](CSC)[C@H](NC(C)=O)C(=O)O[C@H](Cc2ccccc2)C(=O)N1C [Compound 2] (Ac-[X5][dPhLac][NMeDha]A[NMeA][X1](Leu(3R-OH,Nα-propionyl))[NMeT](Me); ester 1-C) | 9.8 | 9.8 | 8 | 11.6 | 3.7 | 3.7 | 3.17 | 4.3 | > 260 | > 260 | > 260 | > 260 | > 260 | > 260 | > 260 | > 260 | 72.6 | 72 | 6.35 | 104 | loss of potency compared to compound (A1) (growth inhibition) [5]: ~15 fold |
| C=C1C(=O)N[C@@H](C)C(=O)N(C)[C@@H](C)C(=O)N[C@@H]([C@H](OC(=O)[C@@H](NC(=O)CC)[C@H](O)CSC)C(C)C)C(=O)N(C)[C@@H]([C@@H](C)OC)C(=O)O[C@H](C(C)C)[C@H](NC(C)=O)C(=O)O[C@H](Cc2ccccc2)C(=O)N1C [Compound 4] (Ac-[X1][dPhLac][NMeDha]A[NMeA][X1](X4)[NMeT](Me); ester 1-C) | 1.2 | 1.2 | 0.91 | 1.5 | 0.5 | 0.5 | 0.45 | 0.53 | > 260 | > 260 | > 260 | > 260 | > 260 | > 260 | > 260 | > 260 | 32.5 | 75 | 1.71 | 104 | loss of potency compared to compound (A1) (growth inhibition) [5]: two-fold |
| C=C1C(=O)N[C@@H](C)C(=O)N(C)[C@@H](C)C(=O)N[C@@H]([C@@H](CSC)OC(=O)[C@@H](NC(=O)CC)[C@H](O)C(C)C)C(=O)N(C)[C@@H]([C@@H](C)OC)C(=O)O[C@H](C(C)C)[C@H](NC(C)=O)C(=O)O[C@H](Cc2ccccc2)C(=O)N1C [Compound 3] (Ac-[X1][dPhLac][NMeDha]A[NMeA][X5](Leu(3R-OH,Nα-propionyl))[NMeT](Me); ester 1-C) | 10.4 | 10.4 | 9.05 | 11.7 | 4 | 4 | 3.12 | 4.89 | > 260 | > 260 | > 260 | > 260 | > 260 | > 260 | > 260 | > 260 | 86.1 | 90 | 12.2 | 98 | loss of potency compared to compound (A1) (growth inhibition) [5]: ~15 fold |
